We go through 2 compounds from PMC7029871, “Development and validation of a sensitive LC-MS/MS method for the quantitation of IMB-YH-4py5-2H, an antituberculosis candidate, and its application to the pharmacokinetic study” (PLoS ONE, 2020).

Data set [1] deals with intracellular M. tuberculosis H37Rv. The experiment in a line: Intracellular activity assay in infected macrophages. The note with it: three-day incubation, infected J744 macrophages, untreated 6.47±0.04. Format: cell-based, Mycobacterium tuberculosis.
The conditions of data set [2]: cited from earlier work.
On the set-up of data set [3]: method as in PMID 26579477. Particulars: oral administration of 200 mg/kg; cited from earlier work.

Structures are written as SMILES.

In the case of `NNC(=O)c1ccncc1` [Isoniazid, reference compound], the Log10CFU in data set [1] (0.5 μg/mL) is 4.60±0.05 Log10CFU; in data set [1] (1 μg/mL), 3.57±0.06 Log10CFU; in data set [1] (2 μg/mL) it was 4.01±0.14 Log10CFU.

Take `COC(=O)/C=C/C(=O)c1ccc(OC)cc1` [YH-8, (E)-Methyl-4-aryl-4-oxabut-2-enoate, reference compound]: the solubility result in data set [2] is recorded as “poor solubility”. For the same compound, in data set [3], the “serum Cmax” value is given as “lower than 0.5 μg/mL” and the “time until serum level decreased below the therapeutic range” value is reported as “less than 1 hour”.
